Data taken from ChEMBL document CHEMBL5375979, “Chemical, Biochemical, Cellular, and Physiological Characterization of Leucettinib-21, a Down Syndrome and Alzheimer's Disease Drug Candidate” (J Med Chem, 2023).

Key:
[1] = biological target: Cyclin-dependent kinase-like 5 (Homo sapiens, UniProt O76039)
Description: Inhibition of human CDKL5 assessed as remaining activity by eurofins-cerep kinase profiler analysis

[2] = biological target: Dual specificity protein kinase CLK3 (Homo sapiens, UniProt P49761); conditions: dose 10.0 µM
[3] = biological target: cGMP-dependent protein kinase 2 (Homo sapiens, UniProt Q13237)
Description: Inhibition of human PRKG2 assessed as remaining activity by eurofins-cerep kinase profiler analysis

[4] = biological target: T1, Dual specificity tyrosine-phosphorylation-regulated kinase 3 (Homo sapiens, UniProt O43781)
T1 sequence (O43781 whole entry): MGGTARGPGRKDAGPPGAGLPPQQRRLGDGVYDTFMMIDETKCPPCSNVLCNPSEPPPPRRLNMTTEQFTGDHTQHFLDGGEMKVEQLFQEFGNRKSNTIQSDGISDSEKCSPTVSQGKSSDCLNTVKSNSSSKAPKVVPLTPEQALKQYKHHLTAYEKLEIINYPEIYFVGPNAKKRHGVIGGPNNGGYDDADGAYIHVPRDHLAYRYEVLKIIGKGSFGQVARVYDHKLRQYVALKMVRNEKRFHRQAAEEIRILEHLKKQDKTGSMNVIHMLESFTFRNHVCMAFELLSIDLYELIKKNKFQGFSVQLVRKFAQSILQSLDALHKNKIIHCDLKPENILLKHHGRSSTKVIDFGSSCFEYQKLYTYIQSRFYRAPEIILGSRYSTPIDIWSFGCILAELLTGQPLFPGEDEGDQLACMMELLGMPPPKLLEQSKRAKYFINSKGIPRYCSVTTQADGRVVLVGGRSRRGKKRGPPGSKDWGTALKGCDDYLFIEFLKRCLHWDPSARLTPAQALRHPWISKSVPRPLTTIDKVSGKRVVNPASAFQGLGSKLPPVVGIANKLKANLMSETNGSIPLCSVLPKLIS
Description: Inhibition of human DYRK3 assessed as remaining activity by eurofins-cerep kinase profiler analysis

Chain of Cyclin-dependent kinase-like 5 (O76039 whole entry): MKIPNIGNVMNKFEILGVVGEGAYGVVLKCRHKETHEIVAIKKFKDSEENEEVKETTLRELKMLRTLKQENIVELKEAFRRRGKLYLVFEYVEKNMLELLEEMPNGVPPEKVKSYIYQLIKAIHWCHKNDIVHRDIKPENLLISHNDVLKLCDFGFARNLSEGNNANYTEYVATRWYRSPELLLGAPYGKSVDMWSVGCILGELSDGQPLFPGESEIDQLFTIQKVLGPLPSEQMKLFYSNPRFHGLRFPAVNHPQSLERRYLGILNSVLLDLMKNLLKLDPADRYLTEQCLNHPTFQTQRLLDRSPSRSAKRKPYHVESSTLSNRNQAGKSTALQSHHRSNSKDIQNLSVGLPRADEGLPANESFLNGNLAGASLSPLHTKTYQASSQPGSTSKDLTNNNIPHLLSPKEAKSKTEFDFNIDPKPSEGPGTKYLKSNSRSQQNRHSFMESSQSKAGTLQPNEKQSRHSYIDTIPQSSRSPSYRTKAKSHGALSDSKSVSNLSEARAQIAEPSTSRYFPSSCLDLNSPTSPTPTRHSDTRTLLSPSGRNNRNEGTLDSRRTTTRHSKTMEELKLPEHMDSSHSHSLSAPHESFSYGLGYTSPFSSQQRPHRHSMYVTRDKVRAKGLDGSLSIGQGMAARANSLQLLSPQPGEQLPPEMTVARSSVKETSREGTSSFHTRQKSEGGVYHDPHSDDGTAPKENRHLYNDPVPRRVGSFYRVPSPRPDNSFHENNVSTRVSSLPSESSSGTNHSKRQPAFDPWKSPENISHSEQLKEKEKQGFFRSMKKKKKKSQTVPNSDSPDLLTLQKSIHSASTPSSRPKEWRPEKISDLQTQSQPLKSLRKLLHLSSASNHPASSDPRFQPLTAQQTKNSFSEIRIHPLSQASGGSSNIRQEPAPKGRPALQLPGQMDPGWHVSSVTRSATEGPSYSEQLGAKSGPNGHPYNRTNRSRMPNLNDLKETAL
Chain of cGMP-dependent protein kinase 2 (Q13237 whole entry): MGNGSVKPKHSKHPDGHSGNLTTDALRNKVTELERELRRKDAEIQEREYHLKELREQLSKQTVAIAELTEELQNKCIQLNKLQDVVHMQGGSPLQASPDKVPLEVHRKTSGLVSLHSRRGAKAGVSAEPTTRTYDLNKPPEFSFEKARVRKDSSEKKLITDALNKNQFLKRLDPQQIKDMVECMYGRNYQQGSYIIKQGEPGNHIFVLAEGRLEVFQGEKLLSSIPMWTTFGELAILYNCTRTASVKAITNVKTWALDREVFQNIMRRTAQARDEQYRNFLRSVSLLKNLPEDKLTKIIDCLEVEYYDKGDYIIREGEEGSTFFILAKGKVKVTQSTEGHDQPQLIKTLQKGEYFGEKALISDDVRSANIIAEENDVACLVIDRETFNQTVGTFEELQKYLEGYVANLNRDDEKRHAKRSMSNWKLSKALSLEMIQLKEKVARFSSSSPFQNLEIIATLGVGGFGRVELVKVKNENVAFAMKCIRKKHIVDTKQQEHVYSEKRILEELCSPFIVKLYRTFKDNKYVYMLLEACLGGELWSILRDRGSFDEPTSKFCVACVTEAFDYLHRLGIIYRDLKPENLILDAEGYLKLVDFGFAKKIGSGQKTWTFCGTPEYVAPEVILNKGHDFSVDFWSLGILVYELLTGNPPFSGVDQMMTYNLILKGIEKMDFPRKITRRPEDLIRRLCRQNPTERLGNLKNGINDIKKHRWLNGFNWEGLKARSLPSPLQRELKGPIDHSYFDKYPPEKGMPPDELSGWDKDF
Chain of Dual specificity protein kinase CLK3 (P49761 whole entry, looked up): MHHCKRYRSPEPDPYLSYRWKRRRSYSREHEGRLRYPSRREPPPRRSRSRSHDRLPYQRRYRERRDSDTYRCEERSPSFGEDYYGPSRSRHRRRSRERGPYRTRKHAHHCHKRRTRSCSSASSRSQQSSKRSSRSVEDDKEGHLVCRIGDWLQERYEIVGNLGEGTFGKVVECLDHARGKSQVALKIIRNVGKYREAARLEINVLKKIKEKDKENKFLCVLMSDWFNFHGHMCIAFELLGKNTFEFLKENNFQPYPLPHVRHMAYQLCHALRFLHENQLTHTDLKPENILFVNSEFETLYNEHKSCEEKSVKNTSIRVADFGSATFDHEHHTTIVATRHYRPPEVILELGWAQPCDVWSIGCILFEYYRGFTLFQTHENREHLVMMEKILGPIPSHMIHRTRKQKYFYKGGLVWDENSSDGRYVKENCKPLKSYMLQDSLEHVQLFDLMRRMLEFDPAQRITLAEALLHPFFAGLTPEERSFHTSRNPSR

IC50 [1]: > 10 µM
ΔTm [2]: 0.3 °C
IC50 [3]: > 10 µM
IC50 [4]: > 1 µM
Structure (SMILES): COC[C@@H](CC(C)C)NC1=N/C(=C\c2ccc3scnc3c2)C(=O)N1
